What all share (type): cell-based
The subject of experiment [1] is human umbilical-vein endothelial cells (HUVEC). The experiment in a line: Tube Formation Assay (TFA) Test, HUVEC in collagen gel. The note with it: 20 hours, 40% or less judged remarkable; for inhibition at 1 µg/mL / inhibition at 10 µg/mL: Homo sapiens, HUVEC, 20 h, read-out: TFA (inhibition rate, %). In short, it runs like this: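 HUVEC (7th subculture, 1×10^5 cells/ml) attached to collagen gel for 2 h at 37 °C, given sample and overlaid with collagen, then cultured 20 h at 37 °C, 5% CO2 in M-199 with 20% FCS, 30 ng/ml b-FGF and 0.1 μM PMA. Tube length measured by image analysis; % inhibition relative to positive and negative controls.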

For experiment [2] the test system is unchanged. The experiment in a line: Cell Proliferation Assay (CPA) Test, HUVEC, MTT. The following applies: M199 (2+) medium; for IC50: Homo sapiens, read-out: CPA (IC50 μg/ml). The procedure: Furthermore, the sample liquids of compounds used in the CPA and CMA tests were prepared in the manner described below. Firstly, after weighing out each compound, a calculated amount of DMSO was added. After dissolving the compound in the DMSO, phosphate buffered physiological saline (PBS (-)) was added to bring the sample concentration to 1 mg/ml in PBS (-). The amount of DMSO used to dissolve the compounds was adjusted in advance to that the concentration of DMSO at that time was 5%. The resulting liquids were diluted 10-fold with 5% DMSO-PBS (-) solution to prepare sample solutions having a concentration of 0.1 mg/ml. In the TFA test, 320 μl of the prepared 1 mg/ml sample solutions were removed followed by addition of 680 μl of PBS (-) to prepare samples having a concentration of […]. Moreover, 100 μl of this solution was removed followed by addition of 900 μl of PBS (-) to dilute 10-fold and prepare samples having a concentration of 1 μg/ml. P [Cell Proliferation Assay (CPA) Test]
100 μl of the 7th subculture obtained from first generation human umbilical-vein endothelial cells (HUVEC) were disseminated in the wells (N=3) of a 96-well plate (Iwaki, Cat. #4860-010) at a cell concentration of 5×10^4 cells/ml. M-199 medium containing +20% FCS, 10 ng/ml of b-FGF and 10 ng/ml of EGF (abbreviated as "M199 (2+)") was used for the medium.
After culturing for 24 hours at 37° C. in the presence of 5% CO2 under the above conditions, 20 μl/well of MTT solution (solution containing 5 mg/ml of PBS (-)) were added to the control well followed by accurately culturing for 4 hours at 37° C. in the presence of 5% CO2. Following completion of culturing, 100 μl/well of a stop solution (0.001 N aqueous HCl solution containing 10% SDS) were added. On the other hand, 10 μl/well of sample solutions at concentrations of 1 mg/ml and 0.1 mg/ml were added to the other wells.
After culturing for 24 hours at 37° C. in the presence of 5% CO2, the medium was replaced and 100 μl/well of M199 (2+) were added. The samples were also replaced in each well at this time.
Moreover, after additionally culturing for 48 hours at 37° C. in the presence of 5% CO2, 20 μl/well of MTT solution were added to the wells containing sample and the control well followed by accurately culturing for 4 hours at 37° C. and adding 100 μl/well of stop solution.

Experiment [3] shares this test system. The experiment in a line: Cell Migration Assay (CMA) Test, HUVEC (% relative to control). The following applies: 24 hours, 60% or less = remarkable inhibition; for activity at 1 µg/mL / activity at 10 µg/mL: Homo sapiens, HUVEC, read-out: CMA (% relative to control). In short, it runs like this:
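Confluent 7th-subculture HUVEC monolayers scraped with razor blade, then given M199 (2+) plus 40 or 4 μl of 1 mg/ml sample (in 5% DMSO-PBS) per 4.0 ml medium for 24 h at 37 °C. Methanol-fixed, Giemsa-stained; newly migrated cells counted microscopically in 1 mm×1 mm blocks, expressed versus M199 (2+) control.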

In brackets after ≈: the same amount, converted by molar mass.

Consider `CNC(=O)O[C@@H]1OC=C(C(=O)Oc2ccccc2)[C@H]2C[C@@H]3O[C@]3(C)[C@H]12` [compound 13, (1S,4aS,6S,7R,7aR)-6,7-epoxy-1,4a,5,6,7,7a-hexahydro-7-methyl-1-(methylcarbamoyloxy) cyclopenta [c]-pyrane-4-carboxylic acid phenylester], for which the inhibition at 1 µg/mL in experiment [1] (1 μg/ml) was determined as 36.3%. In addition, the inhibition at 10 µg/mL in experiment [1] (10 μg/ml) turned out to be 36.8%. Also, the IC50 in experiment [2] came to 53.3 µg/mL (≈ 154 µM). The activity at 1 µg/mL in experiment [3] (1 μg/ml) is 94.1%. In addition, the activity at 10 µg/mL in experiment [3] (10 μg/ml) stood at 94%.

As for `CNC(=O)O[C@@H]1OC=C(C(=O)NC2CCCCC2)[C@H]2C[C@@H]3O[C@]3(C)[C@H]12` [compound 21, (1S,4aS,6S,7R,7aR)-6,7-epoxy-1,4a,5,6,7,7a-hexahydro-7-methyl-1-(methylcarbamoyloxy) cyclopenta [c]-pyrane-4-carboxylic acid cyclohexylamide], in experiment [1] (1 μg/ml), the inhibition at 1 µg/mL turned out to be 29.5%. In addition, the inhibition at 10 µg/mL in experiment [1] (10 μg/ml) turned out to be 23.2%. Also, the IC50 in experiment [2] was more than 100 µg/mL. Also, the activity at 1 µg/mL in experiment [3] (1 μg/ml) worked out at 105%. The activity at 10 µg/mL in experiment [3] (10 μg/ml) was 101%.

Consider `COC(=O)C1=CO[C@H](OC(=O)NC(=O)c2ccccc2)C2[C@@H]1C[C@@H]1O[C@]21C` (stereo in doubt) [compound 42, (1R,4aS,6S,7R,7aR)-1-(benzoylcarbamoyloxy)-6,7-epoxy-1,4a,5,6,7,7a-hexahydro-7-methylcyclopenta [c] pyrane-4-carboxylic acid methylester], for which the inhibition at 1 µg/mL in experiment [1] (1 μg/ml) was determined as 12.5%. The inhibition at 10 µg/mL in experiment [1] (10 μg/ml) turned out to be 18.7%. In addition, in experiment [2], the IC50 was more than 100 µg/mL. The activity at 1 µg/mL in experiment [3] (1 μg/ml) was 90.4%. Also, the activity at 10 µg/mL in experiment [3] (10 μg/ml) was found to be 70.6%.

With `CNC(=O)O[C@@H]1OC=C(C(=O)OC)[C@H]2CC[C@]3(CO3)[C@@H]12` [compound 53, (1S,4aS,7S,7aR)-1-(methylcarbamoyloxy)-1,4a,5,6,7,7a-hexahydrospiro [cyclopenta [c]pyrane-7(1H),2'-oxirane]-4-carboxylic acid methylester], in experiment [1] (1 μg/ml), the inhibition at 1 µg/mL stood at 26%. Moreover, the inhibition at 10 µg/mL in experiment [1] (10 μg/ml) was determined as 9.7%. In experiment [2], the IC50 is more than 100 µg/mL. The activity at 1 µg/mL in experiment [3] (1 μg/ml) was 100%. The activity at 10 µg/mL in experiment [3] (10 μg/ml) worked out at 94.1%.

Consider `CNC(=O)O[C@@H]1OC=C(C(=O)OC)[C@H]2C[C@@H]3O[C@]3(CCl)C12` (stereo in doubt) [compound 51, (1S,4aS,6S,7R,7aR)-6,7-epoxy-7-(chloromethyl)-1-(methylcarbamoyloxy)-1,4a,5,6,7,7a-hexahydrocyclopenta [c]pyrane-4-carboxylic acid methylester], for which the inhibition at 1 µg/mL in experiment [1] (1 μg/ml) was determined as 19.1%. Moreover, in experiment [1] (10 μg/ml), the inhibition at 10 µg/mL was -1.4%. The IC50 in experiment [2] was more than 100 µg/mL. In experiment [3] (1 μg/ml), the activity at 1 µg/mL was determined as 102%. Moreover, the activity at 10 µg/mL in experiment [3] (10 μg/ml) came out at 101%.

As to `CCCCCCNC(=O)C1=COC(OC(=O)NC)C2C1CC1OC12C` [compound 17, (1S,4aS,6S,7R,7aR)-6,7-epoxy-1,4a5 6,7,7a-hexahydro-7-methyl-1-(methylcarbamoyloxy) cyclopenta [c]-pyrane-4-carboxylic acid n-hexylamide], the inhibition at 1 µg/mL in experiment [1] (1 μg/ml) was found to be 19%. In addition, the inhibition at 10 µg/mL in experiment [1] (10 μg/ml) amounted to 23.4%. Further, the IC50 in experiment [2] was 69.1 µg/mL (≈ 196 µM). Further, the activity at 1 µg/mL in experiment [3] (1 μg/ml) came out at 94.4%. Also, the activity at 10 µg/mL in experiment [3] (10 μg/ml) came to 114%.

For the molecule `CNC(=O)OC=C(C(=O)OC)[C@@H]1CC[C@]2(C)O[C@@]12CO` [compound 54, 2-[(1S,2R,3S)-2,3-epoxy-2-(hydroxymethyl)-3-methyl-2-cyclopentyl]-3-[(methylcarbamoyl)oxy] methylacrylate], the “TFA (inhibition rate, %)” value is -8.6% in experiment [1] (1 μg/ml) and -12.2% in experiment [1] (10 μg/ml). The “CPA (IC50 μg/ml)” value in experiment [2] is more than 100.0 µg/mL. For the same molecule, the “CMA (% relative to control)” value was 90.5% in experiment [3] (1 μg/ml) and 86.2% in experiment [3] (10 μg/ml).

With `CNC(=O)O[C@@H]1OC=C(C(=O)OC)[C@H]2C[C@@H]3O[C@]3(CF)[C@@H]12` [compound 50, (1S,4aS,6S,7R,7aR)-6,7-epoxy-7-(fluoromethyl)-1-(methylcarbamoloxy)-1,4a,5,6,7,7a-hexahydrocyclopenta [c] pyrane-4-carboxylic acid methylester], in experiment [1] (1 μg/ml), the inhibition at 1 µg/mL was 9.5%. Besides, in experiment [1] (10 μg/ml), the inhibition at 10 µg/mL worked out at 23.2%. Also, in experiment [2], the IC50 is more than 100 µg/mL. In experiment [3] (1 μg/ml), the activity at 1 µg/mL is 87.9%. In addition, in experiment [3] (10 μg/ml), the activity at 10 µg/mL was found to be 63.5%.

Take `CC[C@]12O[C@H]1C[C@@H]1C(C(=O)OC)=CO[C@@H](OC(=O)NC)[C@@H]12` [compound 43, (1S,4aS,6s,7R,7aR)-6,7-epoxy-7-ethyl-1,4a,5,6,7,7a-1-hexahydro-1-(methylcarbamoyloxy) cyclopenta [c] pyrane-4-carboxylic acid methylester]: the inhibition at 1 µg/mL in experiment [1] (1 μg/ml) came to 12.4%. For the same molecule, in experiment [1] (10 μg/ml), the inhibition at 10 µg/mL turned out to be 9.1%. Also, the IC50 in experiment [2] is more than 100 µg/mL. Besides, in experiment [3] (1 μg/ml), the activity at 1 µg/mL came out at 99.9%. For the same molecule, the activity at 10 µg/mL in experiment [3] (10 μg/ml) turned out to be 89.3%.

Regarding `CNC(=O)OC[C@]12O[C@H]1C[C@@H]1C(C(=O)OC)=CO[C@@H](O)[C@@H]12` [Compound 60, (4aS,6S,7R,7aR)-6,7-epoxy-1-hydroxy-7-methylcarbamoyloxymethyl-1,4a,5,6,7a-pentahydro [c] pyrane-4-carboxylic acid methylester], the inhibition at 1 µg/mL in experiment [1] (1 μg/ml) turned out to be 32.7%. Also, the inhibition at 10 µg/mL in experiment [1] (10 μg/ml) was 41.5%. Further, in experiment [2], the IC50 is more than 100 µg/mL. The activity at 1 µg/mL in experiment [3] (1 μg/ml) was 87.1%. Also, the activity at 10 µg/mL in experiment [3] (10 μg/ml) was 96.3%.

On to `CNC(=O)O[C@@H]1OC=C(C(=O)OC)[C@H]2CC[C@@]3(CO3)[C@@H]12` [compound 52, (1S,4aS,7R,7aR)-1-(methylcarbamoyloxy)-1,4a,5,6,7,7a-hexahydrospiro [cyclopenta [c]pyrane-7(1H),2'-oxirane]-4-carboxylic acid methylester], for which the inhibition at 1 µg/mL in experiment [1] (1 μg/ml) turned out to be 21.7%. Also, in experiment [1] (10 μg/ml), the inhibition at 10 µg/mL is -6.5%. The IC50 in experiment [2] is more than 100 µg/mL. The activity at 1 µg/mL in experiment [3] (1 μg/ml) is 101%. The activity at 10 µg/mL in experiment [3] (10 μg/ml) was 103%.

Consider `COC(=O)C1=CO[C@@H](OC(=O)Nc2ccc(F)cc2)[C@@H]2[C@@H]1C[C@@H]1O[C@]21C` [compound 36, (1S,4aS,6S,7R,7aR)-6,7-epoxy-1,4a,5,6,7,7a-hexahydro-1-[(4-fluorophenyl)carbamoyloxy]-7-methylcyclopenta [c] pyrane-4-carboxylic acid methylester], for which the inhibition at 1 µg/mL in experiment [1] (1 μg/ml) is 6.9%. The inhibition at 10 µg/mL in experiment [1] (10 μg/ml) was -18.3%. The IC50 in experiment [2] was more than 100 µg/mL. For the same molecule, the activity at 1 µg/mL in experiment [3] (1 μg/ml) was determined as 95%. In addition, the activity at 10 µg/mL in experiment [3] (10 μg/ml) amounted to 99.7%.

Regarding `COC(=O)C1=CO[C@H](OC(=O)NC(=O)CCl)[C@@H]2[C@@H]1C[C@@H]1O[C@]21C` [compound 40, (1R,4aS,6S,7R,7aR)-1-(chloroacetylcarbamoyloxy)-6,7-epoxy-1,4a,5,6,7,7a-hexahydro-7-methylcyclopenta [c] pyrane-4-carboxylic acid methylester], the inhibition at 1 µg/mL in experiment [1] (1 μg/ml) was 32.8%. In addition, the inhibition at 10 µg/mL in experiment [1] (10 μg/ml) is 23.8%. In addition, in experiment [2], the IC50 is 58.1 µg/mL (≈ 168 µM). For the same molecule, the activity at 1 µg/mL in experiment [3] (1 μg/ml) was found to be 77.3%. For the same molecule, the activity at 10 µg/mL in experiment [3] (10 μg/ml) was 66.8%.

For orientation: inhibition means the change of the read-out against control, counted positive when it falls.

The values are drawn from patent US6225478A, “Iridoid derivatives and neovascularization inhibitors containing the same as active ingredient” (Tsumura & Co., priority 1999, dated 2001).
